# Measurements reported in patent US20250019379A1, “NEW CRYSTAL FORM OF COMPOUND, AND PREPARATION METHOD THEREFOR AND USE THEREOF” (E-nitiate Biopharmaceuticals (Hangzhou) Co., Ltd, priority 2021, published 2025).
# Where “and” joins values, the source holds several entries; their conditions need not be identical. Equal values may be shown once. Marks after values point to notes of the source that are not given here.
# Tested on: atopic dermatitis animal model
# Assay: Atopic dermatitis animal model (dinitrochlorobenzene induced)
# Assay type: in vivo, BALB/C mice
# Settings: for Inhibition rate of auricular thickening / Inhibition rate of skin thickening: 10th day of treatment
# From the text: BALB/C mice, 55 pieces, female, were 6 weeks old at the time of purchase and 8 weeks old at the time of experiment, weighing 18 g-20 g. The animals were from Shanghai Lingchang Biotechnology Co, Ltd (SCXK (Shanghai) 2018-0003), experimental animal production certificate number 20180003012342: experimental animal use license number; SYXK(Shanghai)2020-0001 (Via Biotechnology (Shanghai) Ltd.).
# Modeling and administration method; Use depilatory cream to remove the hair of an area of about 5 cm×2 cm from the top of the head to the back of each animal. The application time of the depilatory cream should be controlled within 2 minutes. Wash the depilated area with warm water and wash off the depilatory agent, immediately use a hair dryer to dry the animal's hair, and place the animal on a 37° C. constant-temperature electric blanket for 1 h-2 h. After the animal moves freely, place it in a breeding cage and recover for 1 day (if the animal's skin is red, swollen and damaged after hair removal, it will its elimination). On the second day, 42 animals with normal skin were selected and randomly divided into groups according to body weight, with 6 animals in each group, totaling 7 groups. Except for the G1 normal control group, each animal in the other groups was evenly smeared with 200 μL of 0.5 wt % dinitrochlorobenzene solution (the solvent was acetone and olive oil with a mass ratio of 3:1) on the back and auricle for three consecutive days every day. Induction (the first stage of induction), the second stage of induction started after 14 days, and was induced with 1 wt % dinitrochlorobenzene solution (the solvent was acetone and olive oil with a mass ratio of 3:1) every three days until the end of the experiment, start treatment and administration at the same time, and group administration is shown in Table 6.
# Skin thickness (double layer): Use a vernier caliper to measure the double layer thickness of the back skin on the 1 day before modeling, and on the 14th, 17th, 20th, 23rd, 26th, and 28th days after modeling.
# Auricle thickness: Use a vernier caliper to measure the thickness of the right auricle 1 day before modeling, and on days 14, 17, 20, 23, 26, and 28 after modeling.
# AD-SI score: The condition score refers to the clinical SI scoring standard, and scores three indicators: skin color/erythema, scaly erythema, scaly/peeling/lichenification, thickening, and thickening/edema degree. The total score is 12 points. Scoring standard as follows:
# Erythema/skin color: 0 points, none; 1 points, slight: light red; 2 points, moderate: red; 3 points, significant: dark red; 4 points, very obvious: extremely deep red.
# Scaling/peeling/lichenification: 0 points, none; 1 point, slight: there are scales/peeling/lichenification on part of the epidermis, mainly subtle; 2 points, moderate: most of the skin surface is completely or incompletely covered with Scaling/peeling/lichenification, flaky; 3 points, significant: almost all skin is covered with scales/peeling/lichenification, and the scales/peeling/lichenification are thick and layered; 4 points, very obvious: all skin is covered with Scaling/peeling/lichenification, very thick and layered.
# Thickening/edema: 0 points, none: flush with normal skin; 1 points, slight: slightly higher than the normal skin surface: 2 points, moderate: moderately raised, with round or sloped plaque edges: 3 points, obvious Score: The plaque is hypertrophic and the bulge is obvious; 4 points, very significant: it is highly thickened and the bulge is very obvious. Skin/auricle hyperplasia inhibition rate (%)=1−[(skin/auricle thickness of the treatment group−skin/auricle thickness of the blank control group)/skin/auricle thickness of the negative control group−skin/auricle of the blank control group thickness)]%.
# All data are expressed as Mean±SD or Mean±SEM. Use the statistical analysis software SPSS23.0 to conduct normal distribution and homogeneity of variance tests on the data. […]
# [1] = 3 mg/kg oral twice a day, Day 0
# [2] = 3 mg/kg oral twice a day, Day 1
# [3] = 3 mg/kg oral twice a day, Day 4
# [4] = 3 mg/kg oral twice a day, Day 7
# [5] = 3 mg/kg oral twice a day, Day 10
# [6] = 10 mg/kg oral twice a day, listed as crystalline form A
# [7] = 10 mg/kg oral twice a day, Day 0
# [8] = 10 mg/kg oral twice a day, Day 1
# [9] = 10 mg/kg oral twice a day, Day 4
# [10] = 10 mg/kg oral twice a day, Day 7
# [11] = 10 mg/kg oral twice a day, Day 10
# [12] = 10 mg/kg oral twice a day, Day 10, listed as crystalline form A
# [13] = 30 mg/kg oral twice a day, listed as crystalline form A
# [14] = 30 mg/kg oral twice a day, Day 0
# [15] = 30 mg/kg oral twice a day, Day 1
# [16] = 30 mg/kg oral twice a day, Day 4
# [17] = 30 mg/kg oral twice a day, Day 7
# [18] = 30 mg/kg oral twice a day, Day 10
# [19] = 30 mg/kg oral twice a day, Day 10, listed as crystalline form A
smiles,measurement,setting,value
"C[C@@H](O)c1nc2cnc3[nH]ccc3c2n1N1CCC(CC#N)CC1 [Crystalline form A, (R)-2-(1-(2-(1-hydroxyethyl)imidazo[4,5-d]pyrrolo[2,3-b]pyridine-1(6H)-yl)piperidin-4-yl)acetonitrile]",Inhibition rate of auricular thickening,3 mg/kg oral twice a day,37.93%
same,Inhibition rate of skin thickening,3 mg/kg oral twice a day,14.43%
same,AD-SI score,[1],0.00 points
same,Average auricle thickness,[1],0.20 ± 0.00 mm
same,Average skin thickness (double layer),[1],0.63 ± 0.01 mm
same,AD-SI score,[2],0.00 points
same,Average auricle thickness,[2],0.22 ± 0.01 mm
same,Average skin thickness (double layer),[2],0.98 ± 0.01 mm
same,AD-SI score,[3],1.00 ± 0.00 points
same,Average auricle thickness,[3],0.30 ± 0.01 mm
same,Average skin thickness (double layer),[3],1.08 ± 0.01 mm
same,AD-SI score,[4],6.50 ± 1.05 points
same,Average auricle thickness,[4],0.39 ± 0.03 mm
same,Average skin thickness (double layer),[4],1.85 ± 0.12 mm
same,AD-SI score,[5],5.83 ± 0.75 points
same,Average auricle thickness,[5],0.57 ± 0.04 mm and 0.57 mm
same,Average skin thickness (double layer),[5],2.35 ± 0.15 mm and 2.35 mm
same,Inhibition rate of auricular thickening,10 mg/kg oral twice a day,43.10%
same,Inhibition rate of skin thickening,10 mg/kg oral twice a day,20.40%
same,Inhibition rate of auricular thickening,[6],43.1%
same,Inhibition rate of skin thickening,[6],20.4%
same,AD-SI score,[7],0.00 points
same,Average auricle thickness,[7],0.20 ± 0.01 mm
same,Average skin thickness (double layer),[7],0.60 ± 0.02 mm
same,AD-SI score,[8],0.00 points
same,Average auricle thickness,[8],0.23 ± 0.01 mm
same,Average skin thickness (double layer),[8],0.94 ± 0.02 mm
same,AD-SI score,[9],0.50 ± 0.55 points
same,Average auricle thickness,[9],0.32 ± 0.01**^ mm
same,Average skin thickness (double layer),[9],1.14 ± 0.04 mm
same,AD-SI score,[10],5.83 ± 1.17 points
same,Average auricle thickness,[10],0.43 ± 0.03 mm
same,Average skin thickness (double layer),[10],1.49 ± 0.09 mm
same,AD-SI score,[11],4.67 ± 0.52 points
same,Average auricle thickness,[11],0.54 ± 0.07 mm and 0.54 mm
same,Average skin thickness (double layer),[11],2.23 ± 0.17 mm and 2.23 mm
same,AD-SI score,[12],4.67 points
same,Average auricle thickness,[12],0.54 mm
same,Average skin thickness (double layer),[12],2.23 mm
same,Inhibition rate of auricular thickening,30 mg/kg oral twice a day,50.00%
same,Inhibition rate of skin thickening,30 mg/kg oral twice a day,53.73%
same,Inhibition rate of auricular thickening,[13],50%
same,Inhibition rate of skin thickening,[13],53.73%
same,AD-SI score,[14],0.00 points
same,Average auricle thickness,[14],0.21 ± 0.01 mm
same,Average skin thickness (double layer),[14],0.62 ± 0.02 mm
same,AD-SI score,[15],0.00 points
same,Average auricle thickness,[15],0.22 ± 0.01 mm
same,Average skin thickness (double layer),[15],0.79 ± 0.05 mm
same,AD-SI score,[16],0.50 ± 0.55 points
same,Average auricle thickness,[16],0.29 ± 0.02 mm
same,Average skin thickness (double layer),[16],1.05 ± 0.03 mm
same,AD-SI score,[17],3.00 ± 2.19 points
same,Average auricle thickness,[17],0.32 ± 0.01 mm
same,Average skin thickness (double layer),[17],1.01 ± 0.08 mm
same,AD-SI score,[18],3.50 ± 1.39 points
same,Average auricle thickness,[18],0.50 ± 0.03 mm and 0.50 mm
same,Average skin thickness (double layer),[18],1.56 ± 0.21 mm and 1.56 mm
same,AD-SI score,[19],3.5 points
same,Average auricle thickness,[19],0.5 mm
same,Average skin thickness (double layer),[19],1.56 mm
